{
  "source": "paper PMC10216263",
  "about": "“Favorable Preclinical Pharmacological Profile of a Novel Antimalarial Pyrrolizidinylmethyl Derivative of 4-amino-7-chloroquinoline with Potent In Vitro and In Vivo Activities” (Biomolecules, 2023)",
  "key": {"P. berghei ANKA [1]": {"tested_on": "P. berghei ANKA", "assay": "Four-day suppressive Peters' test, oral", "type": "in vivo, P. berghei in CD1 mice", "details": "once a day for 4 days, parasitemia day 4, CD1 mice", "method": "Groups of five CD1 mice were inoculated i.v., with 4 × 10^6 infected erythrocytes/mice. Compounds, dissolved in standard suspending formula (SSV) (0.5% sodium carboxymethylcellulose, 0.5% benzyl alcohol, 0.4% Tween 80, and 0.9% NaCl), were administered once a day for 4 days via oral gavage, starting two hours post-infection. […] Parasitemia was evaluated using microscopic examination of Giemsa-stained blood films taken on day four, processed using MICROSOFT® EXCEL spreadsheets (Microsoft Corp., Redmond, WA, USA), and expressed as percentages of inhibition from the arithmetic mean parasitemia of each group in relation to the untreated group. ED50 and ED90 values were calculated using GraphPad Prism 6 (GraphPad Software Inc., La Jolla, CA, USA)."}, "P. falciparum K1 (CQ-R)": {"tested_on": "P. falciparum K1 (CQ-R)", "assay": "In vitro combination study (isobologram, ∑FIC)", "type": "cell-based"}, "P. falciparum D10 (CQ-S)": {"tested_on": "P. falciparum D10 (CQ-S)", "design": "method as in PMID 18538567", "details": "72 h incubation, pLDH method, mean of 3 experiments; cited from earlier work"}, "human hepatocytes": {"tested_on": "human hepatocytes", "assay": "Metabolic profiling in hepatocytes", "type": "in vitro ADME", "details": "human hepatocytes, MG3 10 µM, 1 h incubation, semi-quantitative", "method": "(§1) For metabolite profiling, MG3.2HCl (10 µM) was incubated with mouse, rat, dog, monkey, and human hepatocytes (300,000 cells/mL for the mouse and 1 × 10^6 cells/mL for the other species) in Leibovitz L-15 medium, at 37 °C. Incubations were performed in a 12-well plate under shaking. Aliquots of the incubation samples, together with a control in medium alone, were taken at t = 0 and 60 min; the metabolism was stopped by the addition of an equal volume of chilled ACN and the samples were centrifuged at 1100 rpm for 20 min. The supernatant was stored at −20 °C until analysis. The analyses were performed using an HPLC system (Agilent) online with a photodiode array (PDA) detector (Agilent) coupled to a Mass Spectrometer Q-TOF 2 (Waters), ESI positive, following the method reported in Table 1.\n(§2) The software utilized for searching the accurate masses of possible metabolites was Metabolynx, version 4.1 (Waters Corporation, Milford, MA, USA), with a mass window of 40 mDa. Samples were then re-run in MS/MS mode by selecting the masses of possible metabolites found. The collision energy used to obtain MS/MS data was 25 eV. The proposed identity of metabolites was based on their accurate mass (using LockSpray correction), with an accuracy of +/−5 mDa. MS/MS analyses were performed to verify that peaks were drug-related and to obtain structural information from the fragment ions formed. The structures of some metabolites are proposed. The approximate relative amounts of parent and metabolites were determined from the absolute areas taken from a selected ion chromatogram at the metabolite masses with a mass window of 0.04 Da."}, "rat hepatocytes": {"tested_on": "rat hepatocytes", "assay": "Metabolic profiling in hepatocytes", "type": "in vitro ADME", "details": "rat hepatocytes, MG3 10 µM, 1 h incubation, semi-quantitative", "method": "as §1, §2"}, "P. berghei ANKA [2]": {"tested_on": "P. berghei ANKA", "assay": "Oral curative activity against P. berghei ANKA", "type": "in vivo, P. berghei in mice"}},
  "data": [
    {"smiles": "Clc1ccc2c(NCC34CCCN3CCC4)ccnc2c1", "note": "[MG3, 7-Chloro-N-((hexahydro-1H-pyrrolizin-7a-yl)methyl)quinolin-4-amine]", "values": [
      {"measurement": "ED50", "setting": "P. berghei ANKA [1]; Plasmodium berghei, 96 h, read-out: ED50 (95% CI) Mean", "value": 5.22, "unit": "mg/kg"},
      {"measurement": "ED90 (95% CI) Mean", "setting": "P. berghei ANKA [1]", "value": "7.55 (6.38–8.72) mg/kg"},
      {"measurement": "Mean ∑FIC50 (95% CI)", "setting": "P. falciparum K1 (CQ-R); in combination with ASN, K1, IC50 level", "value": "1.25 (0.94 – 1.56)"},
      {"measurement": "Mean ∑FIC50 (95% CI)", "setting": "P. falciparum K1 (CQ-R); in combination with DHA, K1, IC50 level", "value": "1.25 (1.21 – 1.29)"},
      {"measurement": "Mean ∑FIC50 (95% CI)", "setting": "P. falciparum K1 (CQ-R); in combination with RKA-182, K1, IC50 level", "value": "1.24 (0.85 – 1.63)"},
      {"measurement": "interaction (isobologram)", "setting": "P. falciparum K1 (CQ-R); in combination with azitromycin, K1 (CQ-R)", "value": "additive"},
      {"measurement": "IC50", "setting": "P. falciparum D10 (CQ-S)", "value": 30.6, "unit": "nM"},
      {"measurement": "% of Total Drug Related Material", "setting": "human hepatocytes", "value": 82, "unit": "%"},
      {"measurement": "% of Total Drug Related Material", "setting": "rat hepatocytes", "value": 53, "unit": "%"},
      {"measurement": "prolonged mice survival compared to CQ, amodiaquine or artesunate", "setting": "P. berghei ANKA [2]; 30 mg/kg for 3 times", "value": "approximately 50%"},
      {"measurement": "curative activity", "setting": "P. berghei ANKA [2]; 30 mg/kg for 3 times, P. berghei-infected mice", "value": "not curative"},
      {"measurement": "% Suppression of parasitaemia (on day 4 post infection)", "setting": "P. berghei ANKA [2]; oral dose 3 x 30 mg/kg", "value": 100, "unit": "%"},
      {"measurement": "Average survival (days) after infection", "setting": "P. berghei ANKA [2]; oral dose 3 x 30 mg/kg, individual values in brackets", "value": "22 (17, 23, 23, 24, 24) days"}
    ]}
  ]
}
